Results as given in publication PMC12699471 (RSC Advances, 2025).
Entries after “also recorded” stand apart in the source; their conditions may differ.

Tests used:
Format in all cases: cell-based, human
MCF-7 cells [1] = assay: MTT cell viability assay, MCF-7 cells
MDA-MB-231 cells = assay: MTT cell viability assay, MDA-MB-231 cells; conditions: for cell survival: MDA-MB-231 cells, 100 µM, 48 h, MTT
MCF-7 cells [2] = assay: Microscopic analysis of cell morphology, MCF-7 cells; conditions: 48 h treatment; for cell morphology / cell death under the microscope: 10× magnification

**Q.** Which IC50 (MCF-7 cells [1]; Homo sapiens, MCF7) does the source give for `CCOC(=O)C1=C(COCc2cn(CCN3C(=O)C(=O)c4ccccc43)nn2)N=C2SC=CN2C1c1cccc(Cl)c1` (centres unmarked) [Compound 14a] here?
**A.** 81.9 ± 2.26 µM

**Q.** What about the cell survival (MCF-7 cells [1]; MCF-7 cells, 100 µM, 48 h, MTT) of the same molecule?
**A.** ~52%

**Q.** What about the IC50 (MDA-MB-231 cells; Homo sapiens, MDA-MB-231) of the same molecule?
**A.** 42.3 ± 0.83 µM

**Q.** And the cell survival (MDA-MB-231 cells)?
**A.** 58%

**Q.** And the “breast cancer cell inhibitory activity as concluded from microscopy” value (shortened to “breast cancer cell inhibitory activity”) (MCF-7 cells [2])?
**A.** highest breast cancer cell inhibitory activity

**Q.** And the “cell morphology / cell death under the microscope” value (from here on “cell morphology / cell death”) (MCF-7 cells [2])?
**A.** mostly dead

**Q.** With `CCOC(=O)C1=C(COCc2cn(CCN3C(=O)C(=O)c4cc(Cl)ccc43)nn2)N=C2SC=CN2C1c1cccc(Cl)c1` (centres unmarked) [Compound 14c] as the molecule, how does the “breast cancer cell inhibitory activity” value (MCF-7 cells [2]) read?
**A.** highest breast cancer cell inhibitory activity

**Q.** And the “cell morphology / cell death” value (MCF-7 cells [2])?
**A.** significant changes in their morphology; also recorded: mostly dead

**Q.** For `CCOC(=O)C1=C(COCc2cn(CCN3C(=O)C(=O)c4cc(F)ccc43)nn2)N=C2SC=CN2C1c1cccc(Cl)c1` (centres unmarked) [Compound 14d], which “breast cancer cell inhibitory activity” value (MCF-7 cells [2]) is on record?
**A.** not showing breast cancer cell growth inhibition

**Q.** What about the “cell morphology / cell death” value (MCF-7 cells [2]) of the same molecule?
**A.** significant changes in their morphology

**Q.** Which results are given for `CCOC(=O)C1=C(COCc2cn(C3OC(COC(C)=O)C(OC(C)=O)C(OC(C)=O)C3OC(C)=O)nn2)N=C2SC=CN2C1c1cccc(Cl)c1` (centres unmarked) [Compound 15]?
**A.** breast cancer cell inhibitory activity as concluded from microscopy (MCF-7 cells [2]): highest breast cancer cell inhibitory activity; cell morphology / cell death under the microscope (MCF-7 cells [2]): mostly dead

**Q.** What does the source list for `CC/C(=C(\c1ccccc1)c1ccc(OCCN(C)C)cc1)c1ccccc1` [Tamoxifen, tamoxifen, reference compound]?
**A.** cell survival (MDA-MB-231 cells): 63%; cell morphology / cell death under the microscope (MCF-7 cells [2]): significant changes in their morphology; also recorded: mostly dead
